Columns and labels:
Assay in all cases: relative viability (nuclei count vs DMSO), 5 days (fraction); higher = more cells survive
[1] = system: LCLC-103H
In short: (§1)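 Lung cancer cell lines were seeded in 1536-well plates and dosed by pin tool the next day, with either a single drug or a fixed anchor-drug dose combined with five library-drug doses (not always all listed) spaced in √10 steps. Five days later, one step fixed the cells and stained their nuclei (final 0.05% Triton X-100, 1% formaldehyde, 1 ug/ml Hoechst), and nuclei were counted on 4× images. Relative viability is the nuclei count in treated wells divided by the count in vehicle wells, and each value is the median of duplicate plates.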

[2] = system: LXF-289
In short: as §1

[3] = system: NCI-H1355
In short: as §1

[4] = system: NCI-H1563
In short: as §1

[5] = system: NCI-H1651
In short: as §1

[6] = system: NCI-H1755
In short: as §1

[7] = system: NCI-H1792
In short: as §1

[8] = system: NCI-H1915
In short: as §1

[9] = system: NCI-H2170
In short: as §1

[10] = system: NCI-H2347
In short: as §1

[11] = system: NCI-H3122
In short: as §1

[12] = system: NCI-H322M
In short: as §1

[13] = system: NCI-H441
In short: as §1

[14] = system: NCI-H460
In short: as §1

[15] = system: NCI-H520
In short: as §1

[16] = system: NCI-H596
In short: as §1

[17] = system: NCI-H650
In short: as §1

[18] = system: NCI-H661
In short: as §1

[19] = system: NCI-H727
In short: as §1

[20] = system: PC-14
In short: as §1

[21] = system: RERF-LC-KJ
In short: as §1

[22] = system: SK-MES-1
In short: as §1

SMILES: O=C(O)c1ccc(-c2c[nH]c3ncc(-c4ccccc4)cc23)cc1C1CCCC1 + CS(=O)(=O)N1CCN(Cc2cc3nc(-c4cccc5[nH]ncc45)nc(N4CCOCC4)c3s2)CC1 [Pictilisib] (partner 1 µM)
- relative viability ([1]; first compound 0.04 µM): 0.631
- relative viability ([1]; first compound 0.1265 µM): 0.693
- relative viability ([1]; first compound 0.4 µM): 0.57
- relative viability ([1]; first compound 1.265 µM): 0.632
- relative viability ([2]; first compound 0.04 µM): 0.762
- relative viability ([2]; first compound 0.1265 µM): 0.869
- relative viability ([2]; first compound 0.4 µM): 0.645
- relative viability ([2]; first compound 1.265 µM): 0.404
- relative viability ([3]; first compound 0.04 µM): 0.481
- relative viability ([3]; first compound 0.1265 µM): 0.514
- relative viability ([3]; first compound 0.4 µM): 0.4
- relative viability ([3]; first compound 1.265 µM): 0.35
- relative viability ([4]; first compound 0.04 µM): 0.604
- relative viability ([4]; first compound 0.1265 µM): 0.658
- relative viability ([4]; first compound 0.4 µM): 0.65
- relative viability ([4]; first compound 1.265 µM): 0.742
- relative viability ([5]; first compound 0.04 µM): 0.557
- relative viability ([5]; first compound 0.1265 µM): 0.641
- relative viability ([5]; first compound 0.4 µM): 0.451
- relative viability ([5]; first compound 1.265 µM): 0.455
- relative viability ([6]; first compound 0.04 µM): 0.381
- relative viability ([6]; first compound 0.1265 µM): 0.603
- relative viability ([6]; first compound 0.4 µM): 0.45
- relative viability ([6]; first compound 1.265 µM): 0.442
- relative viability ([7]; first compound 0.04 µM): 0.287
- relative viability ([7]; first compound 0.1265 µM): 0.311
- relative viability ([7]; first compound 0.4 µM): 0.329
- relative viability ([7]; first compound 1.265 µM): 0.27
- relative viability ([8]; first compound 0.04 µM): 0.992
- relative viability ([8]; first compound 0.1265 µM): 0.876
- relative viability ([8]; first compound 0.4 µM): 0.94
- relative viability ([8]; first compound 1.265 µM): 0.803
- relative viability ([9]; first compound 0.04 µM): 0.386
- relative viability ([9]; first compound 0.1265 µM): 0.326
- relative viability ([9]; first compound 0.4 µM): 0.294
- relative viability ([9]; first compound 1.265 µM): 0.211
- relative viability ([10]; first compound 0.04 µM): 0.622
- relative viability ([10]; first compound 0.1265 µM): 0.789
- relative viability ([10]; first compound 0.4 µM): 0.621
- relative viability ([10]; first compound 1.265 µM): 0.75
- relative viability ([11]; first compound 0.04 µM): 0.565
- relative viability ([11]; first compound 0.1265 µM): 0.683
- relative viability ([11]; first compound 0.4 µM): 0.619
- relative viability ([11]; first compound 1.265 µM): 0.574
- relative viability ([12]; first compound 0.04 µM): 0.564
- relative viability ([12]; first compound 0.1265 µM): 0.526
- relative viability ([12]; first compound 0.4 µM): 0.487
- relative viability ([12]; first compound 1.265 µM): 0.482
- relative viability ([13]; first compound 0.04 µM): 0.489
- relative viability ([13]; first compound 0.1265 µM): 0.517
- relative viability ([13]; first compound 0.4 µM): 0.469
- relative viability ([13]; first compound 1.265 µM): 0.338
- relative viability ([14]; first compound 0.04 µM): 0.409
- relative viability ([14]; first compound 0.1265 µM): 0.574
- relative viability ([14]; first compound 0.4 µM): 0.38
- relative viability ([14]; first compound 1.265 µM): 0.365
- relative viability ([15]; first compound 0.04 µM): 0.288
- relative viability ([15]; first compound 0.1265 µM): 0.268
- relative viability ([15]; first compound 0.4 µM): 0.299
- relative viability ([15]; first compound 1.265 µM): 0.262
- relative viability ([16]; first compound 0.04 µM): 0.353
- relative viability ([16]; first compound 0.1265 µM): 0.399
- relative viability ([16]; first compound 0.4 µM): 0.353
- relative viability ([16]; first compound 1.265 µM): 0.41
- relative viability ([17]; first compound 0.04 µM): 0.993
- relative viability ([17]; first compound 0.1265 µM): 0.889
- relative viability ([17]; first compound 0.4 µM): 0.701
- relative viability ([17]; first compound 1.265 µM): 0.681
- relative viability ([18]; first compound 0.1265 µM): 0.464
- relative viability ([18]; first compound 0.4 µM): 0.508
- relative viability ([18]; first compound 1.265 µM): 0.424
- relative viability ([19]; first compound 0.04 µM): 0.363
- relative viability ([19]; first compound 0.1265 µM): 0.403
- relative viability ([19]; first compound 0.4 µM): 0.654
- relative viability ([19]; first compound 1.265 µM): 0.354
- relative viability ([20]; first compound 0.04 µM): 0.765
- relative viability ([20]; first compound 0.1265 µM): 0.947
- relative viability ([20]; first compound 0.4 µM): 0.713
- relative viability ([20]; first compound 1.265 µM): 0.801
- relative viability ([21]; first compound 0.04 µM): 0.487
- relative viability ([21]; first compound 0.1265 µM): 0.594
- relative viability ([21]; first compound 0.4 µM): 0.503
- relative viability ([21]; first compound 1.265 µM): 0.501
- relative viability ([22]; first compound 0.04 µM): 0.326
- relative viability ([22]; first compound 0.1265 µM): 0.399
- relative viability ([22]; first compound 0.4 µM): 0.283
- relative viability ([22]; first compound 1.265 µM): 0.298
